{
  "source": "patent US6086864A",
  "about": "“Pharmaceutical formulations comprising polythiourea and methods of use thereof” (Merrell Pharmaceuticals Inc., priority 1997, dated 2000)",
  "origin": "cited, not measured here",
  "key": {"[1]": {"system": "viral protein responsible for cell recognition", "conditions": "purified form of heparin"}, "[2]": {"conditions": "in vivo"}},
  "data": [
    {"substance": "heparin", "values": [
      {"measurement": "inhibition of host cell infection", "setting": "[1]", "result": "limited inhibition of host cell infection"},
      {"measurement": "side effects", "setting": "[2]", "result": "hemorrhage and increased clot formation time as well as thrombocytopenia"}
    ]}
  ]
}
